Key:
Assay type in all cases: cell-based, human
[1] = test system: Peripheral blood mononuclear cells co-cultured with venular endothelial cells (HUVEC) (LPS system); experiment: BioMAP LPS system, Example 827
Procedure: (§1) The BioMAP platform (BioMAP® Diversity PLUS Panel from Eurofins) is an in vitro phenotypic profiling technology that screened the compounds of the present disclosure (hereafter indicated as test agents) in human primary cell-based systems modelling complex tissue and disease states. The BioMAP assays were performed using the Eurofin's BioMAP Technology Platform as (see references 1 to 13 in the example 824 section) to model different diseases on primary cell-based model systems. These systems consisted of either single primary cell types or co-culture cells. Adherent cell types were cultured or co-cultured in 96 or 384-well plates until confluence followed by the addition of compounds prepared in DMSO at a final concentration of ≤0.1%. In each cell-based system, primary cells from heathy donors (2-6 donors) were pooled and treated with compounds at 1 and 10 μM dose 1 h prior to stimulation and remain in culture as indicated in
(§2) Example 825, Example 826, Example 827, Example 828, Example 829, Example 830, Example 831, Example 832, Example 833, Example 834, Example 835, Example 836 and Example 837. For on the BioMAP® Diversity PLUS® Panel, please see the following references, which are incorporate herein.
Following the general procedure as described in Example 824, Peripheral blood mononuclear cells co-cultured with venular endothelial cells (HUVEC) (LPS system) were stimulated with LPS for 24 h in the presence or absence of compounds, to model cardiovascular disease and chronic inflammation. Biomarkers read out were; MCP-1, VCAM-1, Thrombomodulin, Tissue Factor, CD40, E-selectin, CD69, IL-8, IL-1α, M-CSF, sPGE2, SRB and TNFα.

[2] = test system: Lung fibroblast (MyoF system); experiment: BioMAP MyoF system, Example 835; conditions: 10 uM
Procedure: as §1, with “indicated in […]” for “indicated in”
Following the general procedure as described in Example 824, Lung fibroblast (MyoF system) were treated with TNFα and TGFβ for 48 h in the presence or absence of the compounds to model fibrosis, chronic inflammation, wound healing, matrix remodelling. Biomarker read out were; α-SM Actin, bFGF, VCAM-1, Collagen-I, Collagen-III, […], IL-8, decorin, MMP-1, PAI-1, TIMP-1, SRB

[3] = test system: Dermal fibroblasts (HDF3CGF system); experiment: BioMAP HDF3CGF system, Example 833
Procedure: as §1, §2
Following the general procedure as described in Example 824, Dermal fibroblasts (HDF3CGF system) were treated with IL-1β, TNFα and IFNγ, EGF, bFGF and PDGF-BB for 24 h in the presence or absence of the compounds to model fibrosis and chronic inflammation. Biomarkers read out were; MCP-1, VCAM-1, ICAM-1, Collagen-I, Collagen-III, IP-10, I-TAC, IL-8, MIG, EGFR, M-CSF, MMP-1, PAI-1, SRB, TIMP-1, TIMP-2 and proliferation was measured for 72 h.

[4] = test system: Venular Endothelial cells (HUVEC) (4H system); experiment: BioMAP 4H system, Example 826
Procedure: as §1, §2
Following the general procedure as described in Example 824, Venular Endothelial cells (HUVEC) (4H system) were treated with IL-4 and histamine for 24 h to model Th2 driven allergy and autoimmunity in the presence or absence of compounds. Biomarkers read out were; MCP-1, Eotaxin-3. VCAM-1, P-selectin, uPAR (CD87), SRB and VEGFRII.

[5] = test system: Keratinocytes co-cultured with dermal fibroblast (KF3CT system); experiment: BioMAP KF3CT system, Example 834
Procedure: as §1, §2
Following the general procedure as described in Example 824, Keratinocytes were co-cultured with dermal fibroblast (KF3CT system) and treated with […], TNFα, IFNγ and TGFβ for 24 h in the presence or absence of the compounds to model psoriasis, dermatitis and skin biology. Biomarkers read out were; MCP-1, ICAM-1, IP-10, IL-8, MIG, IL-1α, MMP-9, PAI-1, SRB, TIMP-2, uPA.

[6] = test system: Bronchial epithelial cells (BE3C system); experiment: BioMAP BE3C system, Example 831
Procedure: as §1, §2
Following the general procedure as described in Example 824, Bronchial epithelial cells (BE3C system) were treated with IL-1f3, TNFα and IFNγ for 24 h in the presence or absence of the compounds to model lung inflammation and chronic obstructive pulmonary disease (COPD). Biomarkers read out were; ICAM-1, uPAR, IP-10, I-TAC, IL-8, MIG, EGFR, HLA-DR, IL-1α, Keratin 8/18, MMP-1, MMP-9, PAI-1, SRB, tPA, uPA.

[7] = test system: Bronchial epithelial cells co-cultured with dermal fibroblast (BF4T system); experiment: BioMAP BF4T system, Example 830; conditions: for % increase in Eotaxin-3 / % increase in VCAM-1: 10 uM
Procedure: as §1, §2
Following the general procedure as described in Example 824, Bronchial epithelial cells were co-cultured with dermal fibroblast (BF4T system) and were treated with TNFα and IL-4 for 24 h in the presence or absence of the compounds to model asthma, allergy, fibrosis, lung inflammation. Biomarkers read out were; MCP-1, Eotaxin-3, VCAM-1, ICAM-1, CD90, IL-8, IL-1α, keratin 8/18, MMP-1, MMP-3, MMP-9, PAI-1, SRB, tPA, uPA.

[8] = Example 988, concentration tested 1 uM
[9] = procedure of Example 827, concentration tested 1 uM
[10] = procedure of Example 827, concentration tested 10 uM

Row | Structure (SMILES) | % decrease in M-CSF [1, 8] [%] | % decrease in IL-1α ([1]; LPS system, 1 uM) [%] | % decrease in IL-8 ([1]; LPS system, 1 uM) [%] | % decrease in M-CSF ([1]; LPS system, 1 uM) [%] | % decrease in Thrombomodulin ([1]; LPS system, 1 uM) [%] | % decrease in Tissue Factor ([1]; LPS system, 10 uM) [%] | % decrease in IL-1α ([1]; concentration tested 1 uM) [%] | % decrease in Thrombomodulin ([1]; concentration tested 1 uM) [%] | % decrease in Tissue Factor ([1]; concentration tested 10 uM) [%] | % decrease in IL-8 [1, 9] [%] | % decrease in TIMP-1 ([3]; 1 uM) [%] | % decrease in E-Selectin ([4]; 4H system, 1 uM) [%] | % decrease in Eotaxin-3 ([4]; 4H system, 1 uM) [%] | % decrease in VEGFRII ([4]; 4H system, 1 uM) [%] | % decrease in E-Selectin ([4]; concentration tested 1 uM) [%] | % decrease in Eotaxin-3 ([4]; concentration tested 1 uM) [%] | % decrease in VEGFRII ([4]; concentration tested 1 uM) [%] | % decrease in MCP-1 ([5]; 1 uM (Example 927)) [%] | % decrease in MCP-1 ([5]; 1 uM (Example 928)) [%] | % increase in Eotaxin-3 [7] [%] | further results
1 | C/C=C/C(=O)SCCNC(=O)CCNC(=O)[C@@H]1OP(=O)(O)OCC1(C)C [Compound 36] | ≥20 | ≥10 | ≥20 | ≥20 | ≥10 | ≥10 | ≥10 | ≥10 | ≥10 | ≥20 | ≥10 | ≥20 | ≥10 | ≥20 | ≥20 | ≥10 | ≥20 | – | – | – | % decrease in sPGE2 ([1]; LPS system, 10 uM): ≥10%; % decrease in sTNFα ([1]; LPS system, 10 uM): ≥10%; % decrease in sTNFα ([1]; concentration tested 10 uM): ≥10%; % decrease in uPA [2]: ≥10%; % decrease in EGFR ([3]; 1 uM): ≥10%; % decrease in TIMP-2 ([3]; 1 uM): ≥20%; % decrease in MMP-1 ([3]; 10 uM): ≥10%; % increase in 72 Hour Proliferation ([3]; 10 uM): ≥10%; % decrease in MCP-1 ([4]; 4H system, 1 uM): ≥10%; % decrease in MCP-1 ([4]; concentration tested 1 uM): ≥10%
2 | CC(=O)CC(=O)SCCNC(=O)CCNC(=O)[C@@H]1OP(=O)(O)OCC1(C)C [Compound 42] | ≥20 | ≥10 | ≥20 | ≥20 | ≥10 | ≥10 | ≥10 | ≥10 | ≥10 | ≥20 | – | ≥10 | ≥10 | ≥10 | ≥10 | ≥10 | ≥10 | ≥10 | ≥10 | ≥10 | % increase in sTNFα ([1]; LPS system, 10 uM): ≥20%; % increase in sTNFα ([1]; concentration tested 10 uM): ≥20%; % decrease in TIMP-2 ([3]; 10 uM): ≥10%; % decrease in MMP-9 ([6]; 1 uM): ≥10%; % increase in VCAM-1 [7]: ≥10%
3 | CCOP1(=O)OCC(C)(C)[C@H](C(=O)NCCC(=O)NCCSC(=O)CCC(=O)O)O1 (some centres unmarked) [Compound 61] | ≥10 | ≥10 | – | ≥10 | – | ≥10 | ≥10 | – | ≥10 | – | – | – | – | – | – | – | – | ≥20 | ≥20 | ≥10 | % decrease in sTNFα ([1]; LPS system, 1 uM): ≥10%; % decrease in IL-8 ([1]; LPS system, 10 uM): ≥20%; % increase in sTNFα ([1]; LPS system, 10 uM): ≥10%; % decrease in sTNFα ([1]; concentration tested 1 uM): ≥10%; % increase in sTNFα ([1]; concentration tested 10 uM): ≥10%; % decrease in IL-8 [1, 10]: ≥20%; % decrease in TIMP-1 ([3]; 10 uM): ≥10%; % decrease in E-Selectin ([4]; 4H system, 10 uM): ≥10%; % decrease in MCP-1 ([4]; 4H system, 10 uM): ≥10%; % decrease in E-Selectin ([4]; concentration tested 10 uM): ≥10%; % decrease in MCP-1 ([4]; concentration tested 10 uM): ≥10%; % decrease in MMP-9 ([6]; 1 uM): ≥10%
4 | COC(=O)CCC(=O)SCCNC(=O)CCNC(=O)[C@@H]1OC(=O)OCC1(C)C [Compound 451] | ≥20 | ≥10 | – | ≥20 | ≥10 | ≥10 | ≥10 | ≥10 | ≥10 | – | ≥10 | ≥10 | ≥10 | ≥10 | ≥10 | ≥10 | ≥10 | ≥10 | ≥10 | ≥10 | % decrease in IL-8 ([1]; LPS system, 10 uM): ≥20%; % decrease in IL-8 [1, 10]: ≥20%; % decrease in Collagen III ([3]; 1 uM): ≥10%; % decrease in MCP-1 ([4]; 4H system, 10 uM): ≥10%; % decrease in MCP-1 ([4]; concentration tested 10 uM): ≥10%; % decrease in MMP-9 ([6]; 1 uM): ≥10%; % decrease in tPA ([6]; 10 uM): ≥10%; % increase in VCAM-1 [7]: ≥10%
5 | COC(=O)CCC(=O)SCCNC(=O)CCNC(=O)[C@@H]1OC(C)(CC(=O)OC)OCC1(C)C (some centres unmarked) [Compound 633] | ≥10 | – | ≥20 | ≥10 | ≥20 | – | – | ≥20 | – | ≥20 | ≥20 | ≥20 | ≥10 | ≥10 | ≥20 | ≥10 | ≥10 | ≥10 | ≥10 | ≥10 | % decrease in Tissue Factor ([1]; LPS system, 1 uM): ≥10%; % decrease in sPGE2 ([1]; LPS system, 1 uM): ≥10%; % decrease in sTNFα ([1]; LPS system, 1 uM): ≥10%; % increase in sTNFα ([1]; LPS system, 10 uM): ≥10%; % decrease in Tissue Factor ([1]; concentration tested 1 uM): ≥10%; % decrease in sTNFα ([1]; concentration tested 1 uM): ≥10%; % increase in sTNFα ([1]; concentration tested 10 uM): ≥10%; % decrease in uPA [2]: ≥10%; % decrease in EGFR ([3]; 1 uM): ≥10%; % decrease in TIMP-2 ([3]; 1 uM): ≥10%; % increase in 72 Hour Proliferation ([3]; 10 uM): ≥10%; % increase in PAI-I ([3]; 10 uM): ≥10%; % decrease in MCP-1 ([4]; 4H system, 10 uM): ≥10%; % decrease in MCP-1 ([4]; concentration tested 10 uM): ≥10%; % increase in IL-8 ([6]; 1 uM): ≥10%; % decrease in MMP-9 ([6]; 10 uM): ≥10%; % decrease in MMP-9 ([7]; 1 uM): ≥10%
